# Assay results published in US10413581B2, “Combination, composition, and method of administering the combination or composition to animals” (Phibro Animal Health Corporation, priority 2014, dated 2019).
# How the values were obtained:
# Assay type in all cases: in vivo
# coccidia = assay: Example 10: composition in combination with Monensin: performance, total coccidia oocysts per gram; conditions: Composition 250 ppm, Monensin 68 ppm, alone or combined; for Adj. FCR / Feed Intake / Wt. Gain: D 0-42
# Experimental: (§1) In this examples the effect of a composition comprising Quillaja saponaria and Yucca schidigera in combination with Monensin was determined. In some embodiments, the composition was a commercial product sold under the trade name MAGNI-PHI by Phibro Animal Health Corporation. Four treatment regimens were used: a control with no medication; 250 ppm of the composition; 68 ppm Monensin; and 250 ppm composition in combination with 68 ppm Monensin.
# (§2) On Days 14, 21, and 28 fresh fecal samples were collected from each pen. These representative samples were tested to determine the degree of coccidia oocysts per gram of litter, by determining oocysts shedding/cycling. Oocysts per gram were determined for each sample.
# E. gallopavonis = assay: Example 10: oocysts per gram fecal material, E. gallopavonis; conditions: Composition 250 ppm, Monensin 68 ppm, alone or combined
# Experimental: as §1, §2
# E. meleagrimitis = assay: Example 10: oocysts per gram fecal material, E. meleagrimitis; conditions: Composition 250 ppm, Monensin 68 ppm, alone or combined
# Experimental: as §1, §2
# E. adenoeides = assay: Example 10: oocysts per gram fecal material, E. adenoeides; conditions: Composition 250 ppm, Monensin 68 ppm, alone or combined
# Experimental: as §1, §2
# [1] = test system: coccidial contaminated litter; assay: Example 2: live performance of male broiler chickens, coccidial contaminated litter added to pens; conditions: 22 ppm Virginiamycin, throughout the test
# Experimental: In this example, the live performance of male broiler chickens during a standard diet program with and without an embodiment of the disclosed combination was determined. In this embodiment, the combination comprised Virginiamycin and different levels of the composition, particularly 0 ppm, 150 ppm, 200 ppm, and 250 ppm, and further comprising Avatec 90. A disease challenge was presented in each pen by adding coccidial contaminated litter to the pen.
compound,measurement,setting,value
CC[C@@]1([C@@H]2O[C@@H]([C@H]3O[C@@](O)(CO)[C@H](C)C[C@@H]3C)C[C@@H]2C)CC[C@H]([C@]2(C)CC[C@]3(C[C@H](O)[C@@H](C)[C@@H]([C@@H](C)[C@@H](OC)[C@H](C)C(=O)O)O3)O2)O1 [Monensin],Oocysts per gram fecal material Total,coccidia; D 14,1571bc oocysts per gram
same,Oocysts per gram fecal material Total,coccidia; D 21,3409c oocysts per gram
same,Oocysts per gram fecal material Total,coccidia; D 28,252b oocysts per gram
same,Adj. FCR,coccidia; Day 14,1.473b
same,Feed Intake,coccidia; Day 14,20.04b
same,Wt. Gain,coccidia; Day 14,0.261a kg
same,Adj. FCR,coccidia; Day 28,1.562b
same,Feed Intake,coccidia; Day 28,51.81a
same,Wt. Gain,coccidia; Day 28,0.703a kg
same,Adj. FCR,coccidia; Day 42,1.707b
same,Feed Intake,coccidia; Day 42,124.77b
same,Wt. Gain,coccidia; Day 42,1.614bc kg
same,Oocysts per gram fecal material E. gallo.,E. gallopavonis; D 14,430ab oocysts per gram
same,Oocysts per gram fecal material E. gallo.,E. gallopavonis; D 21,623a oocysts per gram
same,Oocysts per gram fecal material E. gallo.,E. gallopavonis; D 28,119a oocysts per gram
same,Oocysts per gram fecal material E. mel.,E. meleagrimitis; D 14,786b oocysts per gram
same,Oocysts per gram fecal material E. mel.,E. meleagrimitis; D 21,2549c oocysts per gram
same,Oocysts per gram fecal material E. mel.,E. meleagrimitis; D 28,74b oocysts per gram
same,Oocysts per gram fecal material E. aden.,E. adenoeides; D 14,356ab oocysts per gram
same,Oocysts per gram fecal material E. aden.,E. adenoeides; D 21,237bc oocysts per gram
same,Oocysts per gram fecal material E. aden.,E. adenoeides; D 28,29b oocysts per gram
Virginiamycin,feed conversion rates,[1],improved feed conversion rates
